Data reported in patent US8969363B2, “Heterocyclic compounds and uses thereof” (Infinity Pharmaceuticals, Inc., priority 2011, dated 2015).
Read-outs that look alike come from different tables or passages of the source.

Columns and labels:
PI3Kα = molecular target: T1, PI3Kα (Homo sapiens, UniProt P42336); test: PI3 Kinase HTRF assay, PI3Kα; assay type: biochemical; conditions: 10 μM PIP2, 10 μM ATP; 'Greater than 10 μM' and 'Greater than 1 μM to 10 μM'; read-out: PI3K α IC50
T1 construct: purchased Millipore Corporation 14-602-K
T1 sequence (P42336 whole entry): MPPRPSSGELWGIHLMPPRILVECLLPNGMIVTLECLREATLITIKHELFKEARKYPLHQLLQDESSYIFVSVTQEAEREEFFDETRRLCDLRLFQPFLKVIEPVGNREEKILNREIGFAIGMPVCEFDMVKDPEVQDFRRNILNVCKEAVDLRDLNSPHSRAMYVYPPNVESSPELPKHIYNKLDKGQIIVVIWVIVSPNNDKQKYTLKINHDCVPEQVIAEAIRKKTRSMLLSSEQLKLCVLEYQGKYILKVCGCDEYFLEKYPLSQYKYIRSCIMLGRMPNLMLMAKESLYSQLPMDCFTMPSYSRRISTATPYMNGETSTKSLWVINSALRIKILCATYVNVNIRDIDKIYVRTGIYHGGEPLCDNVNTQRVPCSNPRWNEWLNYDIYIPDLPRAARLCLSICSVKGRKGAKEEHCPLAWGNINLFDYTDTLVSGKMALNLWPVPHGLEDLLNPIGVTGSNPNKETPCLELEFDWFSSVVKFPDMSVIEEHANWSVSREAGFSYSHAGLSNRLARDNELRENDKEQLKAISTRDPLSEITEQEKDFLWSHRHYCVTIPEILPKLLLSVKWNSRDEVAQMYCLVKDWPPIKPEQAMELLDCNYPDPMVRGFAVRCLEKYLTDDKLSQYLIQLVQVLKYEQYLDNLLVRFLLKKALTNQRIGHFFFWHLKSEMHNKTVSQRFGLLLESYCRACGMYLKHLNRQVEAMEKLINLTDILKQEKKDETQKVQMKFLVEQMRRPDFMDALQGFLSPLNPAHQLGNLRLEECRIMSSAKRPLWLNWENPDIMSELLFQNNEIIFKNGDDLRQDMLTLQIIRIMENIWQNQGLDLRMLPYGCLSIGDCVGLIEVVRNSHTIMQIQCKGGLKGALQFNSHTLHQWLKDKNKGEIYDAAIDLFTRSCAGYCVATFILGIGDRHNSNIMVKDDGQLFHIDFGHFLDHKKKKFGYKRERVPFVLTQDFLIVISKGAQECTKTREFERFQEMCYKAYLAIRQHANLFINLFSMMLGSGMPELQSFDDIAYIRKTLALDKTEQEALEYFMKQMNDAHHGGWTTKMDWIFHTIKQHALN
T1 sequence (P27986 whole entry partner): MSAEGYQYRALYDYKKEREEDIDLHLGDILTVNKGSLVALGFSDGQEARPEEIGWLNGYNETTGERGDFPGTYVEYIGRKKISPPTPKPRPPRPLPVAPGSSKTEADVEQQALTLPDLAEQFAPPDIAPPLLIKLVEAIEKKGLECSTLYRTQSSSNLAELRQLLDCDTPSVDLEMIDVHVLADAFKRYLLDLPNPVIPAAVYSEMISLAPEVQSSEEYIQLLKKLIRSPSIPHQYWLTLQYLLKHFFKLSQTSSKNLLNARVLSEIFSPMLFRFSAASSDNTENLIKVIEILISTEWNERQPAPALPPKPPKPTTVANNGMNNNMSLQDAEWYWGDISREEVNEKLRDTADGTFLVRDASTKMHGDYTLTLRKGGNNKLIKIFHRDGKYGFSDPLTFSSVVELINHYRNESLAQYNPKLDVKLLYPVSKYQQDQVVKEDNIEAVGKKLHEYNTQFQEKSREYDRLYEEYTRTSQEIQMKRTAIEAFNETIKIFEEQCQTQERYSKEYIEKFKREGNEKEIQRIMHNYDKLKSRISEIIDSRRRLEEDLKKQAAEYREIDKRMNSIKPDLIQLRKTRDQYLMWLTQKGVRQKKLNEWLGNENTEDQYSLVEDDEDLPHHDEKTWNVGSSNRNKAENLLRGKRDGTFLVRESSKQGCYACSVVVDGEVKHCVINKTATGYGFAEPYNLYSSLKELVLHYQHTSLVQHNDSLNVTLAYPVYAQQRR
Procedure, shortened: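 Recombinant PI3K converts 10 μM PIP2 with 10 μM ATP, 1 h at room temperature after 15 min compound preincubation, 2% DMSO. PIP3 detected by competitive HTRF with GRP1 PH domain; IC50 by nonlinear regression over 12 points, 20 μM to 0.1 nM.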

PI3Kβ = test: PI3 Kinase HTRF assay, PI3Kβ; assay type: biochemical, human; conditions: 10 μM PIP2, 10 μM ATP; 'Greater than 10 μM' and 'Greater than 1 μM to 10 μM'; read-out: PI3K β IC50
PI3Kβ, sequence (Q8BTI9 whole entry, the tested form may be a part): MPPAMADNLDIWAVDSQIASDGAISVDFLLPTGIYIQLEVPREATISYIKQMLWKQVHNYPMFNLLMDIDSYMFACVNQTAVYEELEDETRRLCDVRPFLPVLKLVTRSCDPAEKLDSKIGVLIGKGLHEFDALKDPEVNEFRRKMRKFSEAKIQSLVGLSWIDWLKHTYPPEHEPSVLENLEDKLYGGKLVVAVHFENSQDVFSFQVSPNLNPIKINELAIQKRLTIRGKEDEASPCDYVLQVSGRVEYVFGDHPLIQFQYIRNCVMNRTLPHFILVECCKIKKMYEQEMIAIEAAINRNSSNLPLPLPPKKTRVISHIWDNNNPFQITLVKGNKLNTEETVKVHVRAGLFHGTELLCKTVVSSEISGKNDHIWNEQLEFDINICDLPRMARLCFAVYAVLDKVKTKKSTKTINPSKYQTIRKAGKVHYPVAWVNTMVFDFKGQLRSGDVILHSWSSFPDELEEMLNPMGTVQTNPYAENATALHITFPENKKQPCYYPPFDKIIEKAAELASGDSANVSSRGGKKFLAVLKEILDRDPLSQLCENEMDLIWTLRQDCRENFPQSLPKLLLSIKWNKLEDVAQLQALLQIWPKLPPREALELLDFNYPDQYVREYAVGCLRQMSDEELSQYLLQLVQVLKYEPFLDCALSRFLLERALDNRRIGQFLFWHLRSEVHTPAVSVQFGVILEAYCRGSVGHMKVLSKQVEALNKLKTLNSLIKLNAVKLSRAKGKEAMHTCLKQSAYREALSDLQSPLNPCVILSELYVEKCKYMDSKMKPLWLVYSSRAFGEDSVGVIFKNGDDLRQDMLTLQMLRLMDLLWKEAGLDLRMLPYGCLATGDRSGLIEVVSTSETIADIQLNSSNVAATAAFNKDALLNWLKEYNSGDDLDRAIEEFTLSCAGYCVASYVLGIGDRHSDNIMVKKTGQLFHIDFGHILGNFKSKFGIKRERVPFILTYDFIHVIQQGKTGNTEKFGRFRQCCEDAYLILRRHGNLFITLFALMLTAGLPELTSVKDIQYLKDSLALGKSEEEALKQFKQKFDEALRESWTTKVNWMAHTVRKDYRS
Procedure, shortened: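 Recombinant PI3Kβ converting PIP2 (10 μM) to PIP3 with 10 μM ATP; PIP3 detected by competitive HTRF displacement of biotin-PIP3/GST-GRP1 PH domain complex. Emission ratios converted to % inhibition; IC50 by nonlinear regression.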

Balb/c splenic B cells = test: B cell activation and proliferation assay (Alamar Blue); assay type: cell-based; conditions: Mus musculus
Procedure, shortened: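 Balb/c splenic B cells (Ficoll, then MACS purification; 50,000/well) were preincubated 30 min with compound at 0.2% final DMSO. They were then stimulated 72 h at 37 °C with a cocktail of 10 μg/ml LPS, or 5 μg/ml anti-mouse F(ab′)2 plus 2 ng/ml mouse IL4. Alamar Blue was read after 5 h at 560Ex/590Em, giving IC50 or EC50.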

[1] = tested on: phospho-AKT in RAJI cells (PI3Kδ); test: PI3Kδ selective cellular assay: phospho-AKT in anti-human IgM stimulated RAJI cells; assay type: cell-based; conditions: read-out: IC50 for phospho-AKT, RAJI cell model
Excerpt: A compound's ability in selectively inhibiting PI3Kδ can be assessed using RAJI cells, i.e., B lymphocyte cells derived from lymphoma patients. Briefly, serum-starved RAJI cells are stimulated with anti-human IgM, thereby causing signaling through the B-cell receptors, as described in, for example, He et al., Leukemia Research (2009) 33: 798-802. B-cell receptor signaling is important for the activation, differentiation, and survival of B cells and certain B-cell derived cancers. Reduction of phospho-AKT is indicative of compounds that may inhibit B-cell proliferation and function in certain diseases. By monitoring the reduction of phospho-AKT in stimulated RAJI cells (using for example, phospho-AKT antibodies), a compound's potential efficacy in selectively inhibiting PI3Kδ can be assessed.
Certain compounds provided herein (e.g., Compounds I-21, I-86, I-87, I-91, I-106, and III-13) were tested in RAJI cell model using procedures as described above.

[2] = tested on: phospho-AKT in RAW 264.7 cells (PI3Kγ); test: PI3Kγ selective cellular assay: phospho-AKT in C5a stimulated RAW 264.7 cells; assay type: cell-based; conditions: Mus musculus
Excerpt: A compound's ability in selectively inhibiting PI3Kγ can be assessed using RAW264.7 macrophages. Briefly, serum-starved PAW264.7 cells are stimulated with a known GPCR agonist C5a. (See, e.g., Camps et al., Nature Medicine (2005) 11(9): 936-943). Cells can be treated with test compounds prior to, simultaneously with, or subsequent to the stimulation by C5a. RAW 264.7 cells respond to the complement component fragment C5a through activation of the C5a receptor, and the C5a receptor activates macrophages and induces cell migration. Test compounds' ability to inhibit C5a-mediated AKT phosphorylation is indicative of selective inhibition of PI3Kγ. Thus, by monitoring the reduction of phospho-AKT in stimulated RAW 264.7 cells (using for example, phospho-AKT antibodies), a compound's potential efficacy in selectively inhibiting PI3Kγ can be assessed.
Certain compounds provided herein (e.g., Compounds I-21, I-86, I-87, I-91, I-106, and III-13) were tested in RAW 264.7 cell model using procedures as described above.

[3] = tested on: phospho-AKT in SKOV-3 cells (PI3Kα); test: PI3Kα selective cellular assay: phospho-AKT in SKOV-3 cells; assay type: cell-based; conditions: Homo sapiens
Excerpt: A compound's ability in selectively inhibiting PI3Kα can be assessed using SKOV-3 cells, i.e., human ovarian carcinoma cell line. Briefly, SKOV-3 cells, in which mutant PI3Kα is constitutively active, can be treated with test compounds. Test compounds' ability to inhibit AKT phosphorylation in SKOV-3 cells, therefore, is indicative of selective inhibition of PI3Kα. Thus, by monitoring the reduction of phospho-AKT in SKOV-3 cells (using for example, phospho-AKT antibodies), a compound's potential efficacy in selectively inhibiting PI3Kα can be assessed.
Certain compounds provided herein (e.g., Compounds I-21, I-86, I-87, I-91, and III-13) were tested in SKOV-3 cell model using procedures as described above.

[4] = tested on: phospho-AKT in 786-O cells (PI3Kβ); test: PI3Kβ selective cellular assay: phospho-AKT in 786-O cells; assay type: cell-based; conditions: Homo sapiens, 786-0, read-out: IC50 for phospho-AKT, 786-O cell model
Excerpt: A compound's ability in selectively inhibiting PI3Kβ can be assessed using 786-O cells, i.e., human kidney carcinoma cell line. Briefly, 786-O cells, in which PI3Kβ is constitutively active, can be treated with test compounds. Test compounds' ability to inhibit AKT phosphorylation in 786-O cells, therefore, is indicative of selective inhibition of PI3Kβ. Thus, by monitoring the reduction of phospho-AKT in 786-O cells (using for example, phospho-AKT antibodies), a compound's potential efficacy in selectively inhibiting PI3Kβ can be assessed.
Certain compounds provided herein (e.g., Compounds I-21, I-86, I-87, I-91, and III-13) were tested in 786-O cell model using procedures as described above.

PI3Kδ = molecular target: T2, PI3Kδ (Homo sapiens, UniProt O00329); test: PI3 Kinase HTRF assay, PI3Kδ; assay type: biochemical; conditions: 10 μM PIP2, 10 μM ATP; 'Greater than 10 μM' and 'Greater than 1 μM to 10 μM'; read-out: PI3K δ IC50
T2 construct: purchased Millipore Corporation 14-604-K
T2 sequence (O00329 whole entry): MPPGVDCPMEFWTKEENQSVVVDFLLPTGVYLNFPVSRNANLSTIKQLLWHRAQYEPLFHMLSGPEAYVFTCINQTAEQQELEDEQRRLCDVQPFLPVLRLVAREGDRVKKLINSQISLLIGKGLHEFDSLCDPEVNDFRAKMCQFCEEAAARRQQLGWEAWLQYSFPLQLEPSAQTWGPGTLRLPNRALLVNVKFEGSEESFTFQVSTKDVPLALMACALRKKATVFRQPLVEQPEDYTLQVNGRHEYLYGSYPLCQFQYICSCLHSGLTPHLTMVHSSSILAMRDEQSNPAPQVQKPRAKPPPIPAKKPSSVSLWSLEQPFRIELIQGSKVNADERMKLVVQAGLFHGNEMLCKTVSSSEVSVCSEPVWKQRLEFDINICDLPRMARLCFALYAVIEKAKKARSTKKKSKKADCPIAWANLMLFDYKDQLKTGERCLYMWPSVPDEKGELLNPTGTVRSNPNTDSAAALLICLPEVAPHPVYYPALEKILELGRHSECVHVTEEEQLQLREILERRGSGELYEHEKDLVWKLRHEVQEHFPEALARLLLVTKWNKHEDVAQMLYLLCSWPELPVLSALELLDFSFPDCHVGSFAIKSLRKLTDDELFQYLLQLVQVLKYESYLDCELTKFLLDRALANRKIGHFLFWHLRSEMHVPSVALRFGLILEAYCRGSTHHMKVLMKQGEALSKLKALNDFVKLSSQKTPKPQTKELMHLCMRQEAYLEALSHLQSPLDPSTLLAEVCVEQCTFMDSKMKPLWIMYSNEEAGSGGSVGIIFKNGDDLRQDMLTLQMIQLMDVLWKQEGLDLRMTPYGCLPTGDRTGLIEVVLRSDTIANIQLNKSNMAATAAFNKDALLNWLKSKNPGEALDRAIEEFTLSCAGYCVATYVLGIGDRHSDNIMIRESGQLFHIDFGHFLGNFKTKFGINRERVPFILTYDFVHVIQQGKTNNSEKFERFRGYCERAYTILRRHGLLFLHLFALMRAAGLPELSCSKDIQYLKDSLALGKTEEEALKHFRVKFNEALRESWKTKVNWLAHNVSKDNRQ
T2 sequence (P27986 whole entry partner): as the sequence (P27986 whole entry partner) above
Excerpt: (§1) A PI3-Kinase HTRF® assay kit (cat No. 33-016) purchased from Millipore Corporation was used to screen compounds provided herein. This assay used specific, high affinity binding of the GRP1 pleckstrin homology (PH) domain to PIP3, the product of a Class 1A or 1B PI3 Kinase acting on its physiological substrate PIP2. During the detection phase of the assay, a complex was generated between the GST-tagged PH domain and biotinylated short chain PIP3. The biotinylated PIP3 and the GST-tagged PH domain recruited fluorophores (Streptavidin-Allophycocyanin and Europium-labeled anti-GST respectively) to form the fluorescence resonance energy transfer (FRET) architecture, generating a stable time-resolved FRET signal. The FRET complex was disrupted in a competitive manner by non-biotinylated PIP3, a product formed in the PI3 Kinase assay.
(§2) PI3 Kinase α, β, γ and δ activity was assayed using the PI3 Kinase HTRF® assay kit (catalogue No. 33-016) purchased from Millipore Corporation. Purified recombinant PI3Kα (catalogue No. 14-602-K), PI3Kβ (catalogue No. 14-603-K), PI3Kγ (catalogue No. 14-558-K) and PI3Kδ (catalogue No. 14-604-K) were obtained from Millipore Corporation. Purified recombinant PI3K enzyme was used to catalyze the phosphorylation of phosphatidylinositol 4,5-bisphosphate (PIP2 at 10 μM) to phosphatidylinositol 3,4,5-trisphosphate (PIP3) in the presence of 10 μM ATP. The assay was carried out in 384-well format and detected using a Perkin Elmer EnVision Xcite Multilabel Reader. Emission ratios were converted into percent inhibitions and imported into GraphPad Prism software. The concentration necessary to achieve inhibition of enzyme activity by 50% (IC50) was calculated using concentrations ranging from 20 μM to 0.1 nM (12-point curve). IC50 values were determined using a nonlinear regression model available in GraphPad Prism 5. […]

PI3Kγ = molecular target: T3, PI3Kγ (Homo sapiens, UniProt P48736); test: PI3 Kinase HTRF assay, PI3Kγ; assay type: biochemical; conditions: 10 μM PIP2, 10 μM ATP; 'Greater than 10 μM' and 'Greater than 1 μM to 10 μM'; read-out: PI3K γ IC50
T3 construct: purchased Millipore Corporation 14-558-K
T3 sequence (P48736 whole entry): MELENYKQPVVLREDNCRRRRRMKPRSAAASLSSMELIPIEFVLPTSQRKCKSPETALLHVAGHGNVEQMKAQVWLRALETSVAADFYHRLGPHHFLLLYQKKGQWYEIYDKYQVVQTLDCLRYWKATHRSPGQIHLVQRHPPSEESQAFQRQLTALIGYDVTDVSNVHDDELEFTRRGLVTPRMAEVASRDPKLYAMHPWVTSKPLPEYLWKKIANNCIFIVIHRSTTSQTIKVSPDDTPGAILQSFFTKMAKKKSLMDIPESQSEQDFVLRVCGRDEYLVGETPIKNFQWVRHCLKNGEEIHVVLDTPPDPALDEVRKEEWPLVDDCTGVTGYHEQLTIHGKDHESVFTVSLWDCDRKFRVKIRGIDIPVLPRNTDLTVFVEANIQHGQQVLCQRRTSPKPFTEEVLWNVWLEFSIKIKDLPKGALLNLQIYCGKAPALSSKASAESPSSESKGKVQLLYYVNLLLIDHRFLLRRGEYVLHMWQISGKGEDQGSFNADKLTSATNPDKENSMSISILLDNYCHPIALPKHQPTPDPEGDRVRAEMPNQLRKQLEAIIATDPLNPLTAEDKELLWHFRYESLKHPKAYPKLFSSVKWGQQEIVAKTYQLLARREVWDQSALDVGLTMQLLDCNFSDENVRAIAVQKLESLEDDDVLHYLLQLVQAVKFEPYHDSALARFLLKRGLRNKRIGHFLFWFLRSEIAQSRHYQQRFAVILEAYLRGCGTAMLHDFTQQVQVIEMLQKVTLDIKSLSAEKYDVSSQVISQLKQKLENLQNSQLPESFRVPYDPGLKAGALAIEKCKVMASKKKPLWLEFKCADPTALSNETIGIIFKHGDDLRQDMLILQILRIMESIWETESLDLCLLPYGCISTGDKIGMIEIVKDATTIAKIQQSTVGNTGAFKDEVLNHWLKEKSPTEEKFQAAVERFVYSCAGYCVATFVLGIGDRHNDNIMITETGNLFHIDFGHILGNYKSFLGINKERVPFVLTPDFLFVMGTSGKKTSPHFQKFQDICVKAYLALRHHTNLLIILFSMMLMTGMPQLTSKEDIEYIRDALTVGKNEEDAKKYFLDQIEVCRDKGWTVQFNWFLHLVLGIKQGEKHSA
Excerpt: as §1, §2

B6.Sle1z.Sle3z model = conditions: cited from earlier work
[5] = PBS pH 7.4, 37° C., 24 hours; cited from earlier work
[6] = control compounds, 5 μM; cited from earlier work
[7] = RAW264.7, range with units in value, read-out: IC50 for phospho-AKT, RAW 264.7 cell model
[8] = SK-OV-3, read-out: IC50 for phospho-AKT, SKOV-3 cell model
[9] = RAW264.7, read-out: IC50 for phospho-AKT, RAW 264.7 cell model

| SMILES | IC50 (PI3Kα) [nM] | IC50 (PI3Kβ) [nM] | EC50 (Balb/c splenic B cells; 'Less than 100 nM') [nM] | IC50 [1] [nM] | IC50 [3, 8] [nM] | IC50 [4] [nM] | IC50 (PI3Kγ) [nM] | further results |
| --- | --- | --- | --- | --- | --- | --- | --- | --- |
| C[C@H](Nc1ncnc2cccnc12)c1cc2cccc(-c3cnn(C)c3)c2c(=O)n1-c1ccccc1 [Compound I-21] | 1000 to 10000 | > 10000 | < 100 | < 100 | 1000 to 10000 | 1000 to 10000 |  | IC50 [2, 7]: 100 to 1000 nM |
| COc1ncc(-c2cccc3nc([C@H](C)Nc4nc(N)nc5cccnc45)n(-c4ccccc4)c(=O)c23)cn1 [Compound I-86] | 1000 to 10000 | > 10000 | < 100 | < 100 | 1000 to 10000 | 1000 to 10000 |  | IC50 [2, 9]: < 100 nM |
| C[C@H](Nc1nc(N)nc2cccnc12)c1nc2cccc(-c3cnn(C)c3)c2c(=O)n1-c1ccccc1 [Compound I-87] | 1000 to 10000 | > 10000 | < 100 | < 100 |  | 1000 to 10000 |  | IC50 [2, 9]: < 100 nM; IC50 ([3]; SK-OV-3, range with units in value, read-out: IC50 for phospho-AKT, SKOV-3 cell model): 100 to 1000 nM |
| Cc1ncc(-c2cccc3nc([C@H](C)Nc4nc(N)nc5cccnc45)n(-c4ccccc4)c(=O)c23)cn1 [Compound I-91, (S)-2-(1-((2-aminopyrido[3,2-d]pyrimidin-4-yl)amino)ethyl)-5-(2-methylpyrimidin-5-yl)-3-phenylquinazolin-4(3H)-one] | 1000 to 10000 | > 10000 | < 100 | < 100 | 1000 to 10000 | 1000 to 10000 |  | IC50 [2, 9]: < 100 nM |
| C[C@H](Nc1cc(O)nc2cccnc12)c1cc2cccc(Cl)c2c(=O)n1-c1ccccc1 [Compound I-100] |  | > 10000 |  |  |  |  | 1000 to 10000 | IC50 (PI3Kδ): 1000 to 10000 nM; EC50 (Balb/c splenic B cells; column 'Greater than 1 μM to 10 μM'): 1000 to 10000 nM |
| CC(C)n1c([C@H](C)Nc2ncnc3cccnc23)cc2cccc(-c3ccc(=O)n(C)c3)c2c1=O [Compound I-106] | 1000 to 10000 | 1000 to 10000 |  | < 100 |  |  | 1000 to 10000 | IC50 [2, 7]: 100 to 1000 nM |
| C[C@H](Nc1ncnc2[nH]cnc12)c1cc2cccc(C(F)(F)F)c2c(=O)n1-c1cccc(F)c1 [III-13] | 1000 to 10000 | 1000 to 10000 | < 100 | < 100 | 1000 to 10000 | 1000 to 10000 |  | IC50 [2, 7]: 100 to 1000 nM |
| C[C@@H](Nc1ncnc2cc(F)ccc12)c1cc2cccc(Cl)c2c(=O)n1-c1ccccc1 [IV-1] | > 10000 | > 10000 |  |  |  |  | > 10000 | IC50 (PI3Kδ): > 10000 nM |
| C[C@@H](Nc1ncnc2cc(F)c(F)cc12)c1cc2cccc(Cl)c2c(=O)n1-c1ccccc1 [IV-3] | > 10000 | > 10000 |  |  |  |  | > 10000 | IC50 (PI3Kδ): > 10000 nM |
| CO[C@H]1C[C@@H]2CC[C@@H](C)[C@@](O)(O2)C(=O)C(=O)N2CCCC[C@H]2C(=O)O[C@H]([C@H](C)C[C@@H]2CC[C@@H](OCCO)[C@H](OC)C2)CC(=O)[C@H](C)/C=C(\C)[C@@H](O)[C@@H](OC)C(=O)[C@H](C)C[C@H](C)/C=C/C=C/C=C/1C [RAD001, everolimus] |  |  |  |  |  |  |  | lupus symptoms (B6.Sle1z.Sle3z model): ameliorate lupus symptoms |
| O=C(O)CCCc1ccc(N(CCCl)CCCl)cc1 [chlorambucil] |  |  |  |  |  |  |  | chemical stability [5]: largely hydrolyzed over the course of 24 hours |
| CC(C)[N+](C)(CCOC(=O)C1c2ccccc2Oc2ccccc21)C(C)C [propantheline] |  |  |  |  |  |  |  | plasma stability [6]: intermediate plasma stability |
| CCCOc1cc(N)ccc1C(=O)OCCN(CC)CC [propoxycaine] |  |  |  |  |  |  |  | plasma stability [6]: low plasma stability |
